Here are results for three compounds from ChEMBL document CHEMBL5113548, “Novel Lactams as Cbl-b Inhibitors for Treating Cancer” (ACS Med Chem Lett, 2022).

Each structure is given as a SMILES string.

By IC50 is commonly meant the concentration at which inhibition is half-maximal.

E3 ubiquitin-protein ligase CBL-B, sequence (Q13191 whole entry): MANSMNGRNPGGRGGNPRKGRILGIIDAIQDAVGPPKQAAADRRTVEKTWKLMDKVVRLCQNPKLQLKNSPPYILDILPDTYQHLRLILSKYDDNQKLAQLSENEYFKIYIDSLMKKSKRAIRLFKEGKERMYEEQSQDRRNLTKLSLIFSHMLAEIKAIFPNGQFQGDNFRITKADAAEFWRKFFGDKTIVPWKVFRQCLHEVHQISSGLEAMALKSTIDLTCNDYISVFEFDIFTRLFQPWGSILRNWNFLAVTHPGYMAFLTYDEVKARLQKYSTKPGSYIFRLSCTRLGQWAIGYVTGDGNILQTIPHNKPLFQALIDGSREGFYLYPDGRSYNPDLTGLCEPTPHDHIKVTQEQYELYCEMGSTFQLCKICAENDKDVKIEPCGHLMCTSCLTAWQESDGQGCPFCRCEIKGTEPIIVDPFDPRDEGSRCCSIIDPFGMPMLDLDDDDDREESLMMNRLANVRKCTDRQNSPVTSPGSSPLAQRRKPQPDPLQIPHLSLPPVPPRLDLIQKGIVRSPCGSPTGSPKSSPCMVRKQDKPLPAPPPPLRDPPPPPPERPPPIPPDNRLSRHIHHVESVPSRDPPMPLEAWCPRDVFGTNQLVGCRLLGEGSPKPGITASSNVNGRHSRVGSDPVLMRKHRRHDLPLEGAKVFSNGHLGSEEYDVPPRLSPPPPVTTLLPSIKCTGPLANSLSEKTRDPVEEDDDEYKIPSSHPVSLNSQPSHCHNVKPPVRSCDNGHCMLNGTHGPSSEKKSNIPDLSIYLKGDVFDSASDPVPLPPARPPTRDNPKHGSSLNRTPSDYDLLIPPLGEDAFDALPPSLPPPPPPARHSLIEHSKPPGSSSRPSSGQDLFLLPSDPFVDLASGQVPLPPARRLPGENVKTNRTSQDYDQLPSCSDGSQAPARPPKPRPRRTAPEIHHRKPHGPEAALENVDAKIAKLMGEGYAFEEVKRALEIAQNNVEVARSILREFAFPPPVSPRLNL

This assay addresses E3 ubiquitin-protein ligase CBL-B (Homo sapiens, UniProt Q13191). Kind of assay: Inhibition of Cbl-b (unknown origin) assessed as reduction in LCK ubiquitination preincubated for 60 mins followed by kinase mix addition measured after 90 mins by TR-FRET assay.
Take `C[C@@H](NC1(C)CCC1)c1cc2c(c(C(F)(F)F)c1)CN(c1cccc(C3(Cc4nncn4C)CC(F)(F)C3)c1)C2=O`: the IC50 is 5.8 nM. The result for `C[C@@H](NC1(C)CCC1)c1cc2c(c(C(F)(F)F)c1)CN(c1cccc(C3([C@@H](F)c4nncn4C)COC3)c1)C2=O` reads 6.7 nM. Regarding `CC(C)[C@@H]1CN(C)CCN1Cc1cc2c(c(C(F)(F)F)c1)CN(c1cc(C3(Cc4nncn4C)COC3)cc(OC3CCCC3)n1)C2=O`, the IC50 was determined as 5.5 nM.
